Assay [1] concerns monocyte derived dendritic cells. Put plainly: Differentiation of monocytes into dendritic cells. It counts as cell-based, human. Conditions: MUC1-ST on day 0. As to the method: To differentiate monocytes into macrophages, CD14+ cells were plated at a concentration of 1×10^6/mL in AIM V medium (Lonza) with either 50 ng/mL recombinant human M-CSF or 50 ng/mL recombinant human GM-CSF (Bio-Techne). The cytokines were added every 3 days. The cells were incubated at 37° C., 5% CO2 for 7 days to fully differentiate, before being characterized as macrophages via phenotypic flow cytometric analysis. To differentiate monocytes into dendritic cells (moDC), CD14+ cells were plated at a concentration of 1×10^6/mL in AIM V medium with 1500 U/mL recombinant human IL-4 (Bio-Techne) and 400 U/mL human GM-CSF (Bio-Techne) for 6 days to fully differentiate, before being characterized as immature DCs via phenotypic flow cytometric analysis (Epics XL, Beckman Coulter or FACSCalibur, BD Biosciences plus WinMDI or Cellquest software). MoDCs were matured using 1 μg/mL LPS for 24 hours.
In addition, the effects of MUC1-ST on the differentiation of monocytes into dendritic cells were assessed. Briefly, monocytes were treated with MUC1-ST on day 0 and differentiated into immature dendritic cells (DCs) using IL-4 (1500 U/mL) and GM-CSF (400 U/mL) in AIM-V media for 6 days. Immature DCs were matured using 1 μg/mL LPS for 24 hours. […]

The subject of assay [2] is macrophages. In words: Kynurenine in supernatant of MUC1-ST treated macrophages (Ehrlich Reagent). Format: cell-based, human. As for the experimental part: (§1) Given that IDO catalyzes the rate-limiting step in the metabolism of tryptophan, the tryptophan metabolite kynurenine was detected as follows. 604, supernatant was mixed with 304, 30% trichloroacetic acid (TCA) and incubated for 30 minutes at 50° C. The supernatant was spun at 3000×g and 50 μL was harvested and mixed with 50 μL freshly prepared Ehrlich Reagent (2% p-dimethylaminobenzaldehyde in glacial acetic acid). After 10 minutes optical density (O.D.) was measured at 492 nm, and concentrations were calculated against a kynurenine standard curve. An increase in the tryptophan metabolite kynurenine was observed (FIG. 11D).

For assay [3], the target named is Siglec-9 (Homo sapiens, UniProt Q9Y336). Put plainly: MUC1-ST binding to monocytic cell lines THP-1 and U937, with or without blocking antibody. Format: cell-based. The arrangement: endogenous in cells; host or cells: THP-1 and U937 cells. Conditions: time and concentration dependent. As for the experimental part:
Unless indicated otherwise, all binding experiments using purified immune cell subsets and biotinylated purified recombinant tumor-associated MUC1 glycoforms were performed as follows. 1×10^5 isolated/differentiated cells at 5×10^5 cells per mL were incubated for 4 hours on ice with 10 μg of the appropriate biotinylated recombinant MUC1 glycoform in 0.5% BSA in PBS. Cells were washed in 0.5% BSA in PBS before 1:200 SAPE (Life Technologies) was added for 30 minutes on ice. Cells were washed and analysed by flow cytometry or fluorescent microscopy (after cytospin), using streptavidin-PE (SAPE) as a label.

Assay [4] concerns THP-1 cells. Put plainly: PAI-1, M-CSF and kynurenine in supernatants of differentiated THP-1 cells. Format: cell-based, human. The conditions noted are these: 100 μg/mL MUC1-ST. As to the method:
THP-1 cells were cultured at a concentration of 1×10^6/mL in AIM V medium. Cells were differentiated using […] phorbol 12-myristate 13-acetate (PMA) on day 0 and 100 ng/mL LPS on day 3 in the presence or absence of 100 μg/mL MUC1-ST or MUC1-T. Cell supernatants were harvested on day 5 and PAI-I concentration measured by ELISA.
as §1
The intracellular effects of MUC1-ST binding to Siglec-9 were further explored in the monocytic cell line, THP-1. THP-1 cells were cultured for three days at a concentration of 1×10^6/mL in AIM V medium and differentiated using […] phorbol 12-myristate 13-acetate (PMA) in the presence or absence of 100 μg/mL MUC1-ST. […] THP-1 cells were further treated with DMSO or the MEK/ERK inhibitor PD98059 at 1004, and the concentration of PAI-1, M-CSF and kynurenine in cell supernatants were measured as described above. […] This increase in concentration was blocked by the MEK/ERK inhibitor PD98059 (FIG. 4I).

For assay [5], the system named is isolated monocytes. In words: Factors released by monocytes after MUC1-ST treatment (protein array, ELISA). It counts as cell-based, human. The conditions noted are these: 100 μg/10^6 cells MUC1-ST, 48 hours. As to the method: ELISAs for IL-6, IL-12p70, TGF-β1, PAI-1, M-CSF, EGF, SHP2, phospho-SHP2 (Biotechne) were all carried out as per manufacturer's instructions.
Recombinant MUC1-ST was bound to monocytes and the factors released determined using a protein array as follows. Briefly, isolated monocytes were treated with 100 μg/10^6 cells MUC1-ST for 4 hours at 4° C., washed and incubated at 37° C. for 48 hours in AIM-V serum-free media. Supernatant was taken and cytokine production was assessed using a 102 protein array (Bio-Techne).
A general note: An ELISA detects its analyte on a solid surface through an enzyme-linked reagent.

In assay [6] the test system is allogeneic CD8+ T cells. Put plainly: Co-culture of MUC1-ST treated macrophages with allogeneic CD8+ T cells. Format: cell-based, human. Conditions: macrophages educated with MUC1-ST. As to the method: Thereafter, the effects of MUC1-ST educated macrophages on T cell function were analyzed. Macrophages treated with MUC1-ST were co-cultured with eFluor® 670 labelled allogeneic CD8+ T cells in the presence of absence of anti-Siglec-9 antibody or isotype control. Indeed, macrophages that had been educated with MUC1-ST were decreased in their ability to stimulate the proliferation of allogeneic CD8 T cells (FIG. 11E). […] (FIG. 11F). This profile of expression and functional activity is indicative of tumor-associated macrophages (TAMs), which play a role in promoting tumor progression (Noy et al. (2014) IMMUNITY 41: 49-61; Sousa et al. (2015) BREAST CANCER RES. 17: 101; Qian et al. (2010) CELL 141: 39-45).

Sequence of Siglec-9 (Q9Y336 18-463): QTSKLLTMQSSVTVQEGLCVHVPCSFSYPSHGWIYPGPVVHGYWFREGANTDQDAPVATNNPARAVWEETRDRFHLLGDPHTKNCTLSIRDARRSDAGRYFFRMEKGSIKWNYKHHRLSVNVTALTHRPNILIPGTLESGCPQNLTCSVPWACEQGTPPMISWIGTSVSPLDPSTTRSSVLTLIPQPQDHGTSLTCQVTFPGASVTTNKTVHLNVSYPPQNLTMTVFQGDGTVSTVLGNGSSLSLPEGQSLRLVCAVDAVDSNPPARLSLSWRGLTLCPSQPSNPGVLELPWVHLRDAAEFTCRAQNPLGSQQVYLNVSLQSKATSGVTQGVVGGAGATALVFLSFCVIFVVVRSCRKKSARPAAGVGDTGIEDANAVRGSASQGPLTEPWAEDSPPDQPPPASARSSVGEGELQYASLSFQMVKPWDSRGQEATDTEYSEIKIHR

“NeuAcα2,3Galβ1-3GalNAc linked via a Ser/Thr of MUC1 [MUC1-ST]”: in assay [1], the “levels of CD86 (immature DCs) and of CD86 and CD83 (matured DCs)” value is “lower levels”. For the same substance, the “tryptophan metabolite kynurenine in supernatant” value in assay [2] is listed as “increase”. Further, in assay [3], the binding to cells result is “found to bind”. Moreover, in assay [4] (THP-1, PMA, three days), the “PAI-1 concentration in cell supernatants” value is recorded as “increased” and the “kynurenine concentration in cell supernatants” value is recorded as “increased”. In assay [4] (THP-1 differentiated with PMA and LPS, day 5), the PAI-I secretion result is recorded as “increased”. For the same substance, the “secretion of factors associated with inflammation and tumor progression (IL-6, M-CSF, PAI-1 validated by ELISA)” value in assay [5] is “induced”. Also, in assay [6], the “CD8 IFNγ secretion” value was “decreased” and the “ability of macrophages to stimulate proliferation of allogeneic CD8 T cells” value was “decreased”.

(Values after US20190211099A1, “METHODS AND COMPOSITIONS FOR TREATING CANCER WITH SIGLEC-9 ACTIVITY MODULATORS” (KING'S COLLEGE LONDON, priority 2016, published 2019).)
